Usually IC50 stands for the midpoint of a concentration-inhibition curve.

Consider 15 molecules from ChEMBL document CHEMBL4011630 (J Med Chem, 2017).

Assay [1] deals with T1, Neuronal acetylcholine receptor; alpha3/beta4 (Rattus norvegicus, UniProt P04757+P12392). Put plainly: Antagonist activity at rat alpha3beta4 nACHR expressed in xenopous laevis oocyte assessed as inhibition of ACh induced channel current after 5 mins at -70 mV holding potential by two electrode voltage clamp method. On the technique in general: Two-electrode voltage clamp is typically applied to oocytes expressing channels or transporters.
T1 sequence (P04757 whole entry): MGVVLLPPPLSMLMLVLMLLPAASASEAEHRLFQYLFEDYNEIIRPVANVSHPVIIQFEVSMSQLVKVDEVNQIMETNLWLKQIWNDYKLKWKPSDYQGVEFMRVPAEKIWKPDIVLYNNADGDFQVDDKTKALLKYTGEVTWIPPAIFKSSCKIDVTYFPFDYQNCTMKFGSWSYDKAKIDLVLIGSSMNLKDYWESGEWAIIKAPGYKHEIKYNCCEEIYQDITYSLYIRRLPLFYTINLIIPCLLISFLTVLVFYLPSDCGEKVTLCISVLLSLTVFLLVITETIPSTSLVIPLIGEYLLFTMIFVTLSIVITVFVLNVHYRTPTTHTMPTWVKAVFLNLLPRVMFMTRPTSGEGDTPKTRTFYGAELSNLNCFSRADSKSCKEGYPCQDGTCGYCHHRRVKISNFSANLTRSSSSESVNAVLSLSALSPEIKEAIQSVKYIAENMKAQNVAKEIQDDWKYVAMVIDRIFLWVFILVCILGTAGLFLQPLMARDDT
T1 sequence (P12392 whole entry): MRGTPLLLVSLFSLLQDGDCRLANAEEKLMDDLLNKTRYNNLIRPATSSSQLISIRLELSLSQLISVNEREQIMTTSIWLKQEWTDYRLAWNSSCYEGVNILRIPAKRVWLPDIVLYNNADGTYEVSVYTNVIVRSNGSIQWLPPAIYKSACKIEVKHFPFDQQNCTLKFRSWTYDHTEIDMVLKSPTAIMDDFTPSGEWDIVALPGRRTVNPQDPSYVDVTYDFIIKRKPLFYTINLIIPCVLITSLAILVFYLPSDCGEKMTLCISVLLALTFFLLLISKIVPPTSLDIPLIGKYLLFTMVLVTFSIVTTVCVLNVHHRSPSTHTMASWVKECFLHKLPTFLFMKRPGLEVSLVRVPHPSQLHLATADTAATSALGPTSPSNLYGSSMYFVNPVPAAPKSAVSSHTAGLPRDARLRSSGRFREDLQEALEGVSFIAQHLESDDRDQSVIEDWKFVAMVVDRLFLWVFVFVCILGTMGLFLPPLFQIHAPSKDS

The target of assay [2] is T2, Nicotinic acetylcholine receptor alpha6/alpha3/beta4 (Rattus norvegicus, UniProt P04757+P12392+P43143). Briefly: Antagonist activity at rat alpha6/alpha3beta4 nACHR expressed in xenopous laevis oocyte assessed as inhibition of ACh induced channel current after 5 mins at -70 mV holding potential by two electrode voltage clamp method.
T2 sequence (P04757 whole entry): as the sequence (P04757 whole entry) above
T2 sequence (P12392 whole entry): as the sequence (P12392 whole entry) above
T2 sequence (P43143 whole entry): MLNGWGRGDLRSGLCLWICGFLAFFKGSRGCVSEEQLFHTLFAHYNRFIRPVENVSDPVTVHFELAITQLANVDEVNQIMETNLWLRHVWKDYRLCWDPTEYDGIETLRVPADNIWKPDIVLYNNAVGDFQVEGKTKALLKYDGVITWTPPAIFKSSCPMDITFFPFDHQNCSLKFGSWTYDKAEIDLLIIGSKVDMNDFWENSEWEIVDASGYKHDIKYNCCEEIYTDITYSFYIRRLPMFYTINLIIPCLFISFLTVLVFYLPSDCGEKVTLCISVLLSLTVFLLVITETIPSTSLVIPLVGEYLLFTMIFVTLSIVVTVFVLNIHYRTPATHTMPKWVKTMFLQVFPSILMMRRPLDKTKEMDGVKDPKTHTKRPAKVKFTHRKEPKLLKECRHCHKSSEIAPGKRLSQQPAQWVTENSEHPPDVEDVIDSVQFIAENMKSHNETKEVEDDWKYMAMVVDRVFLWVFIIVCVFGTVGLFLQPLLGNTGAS
For assay [3], the target named is T1, Neuronal acetylcholine receptor; alpha3/beta4. Put plainly: Antagonist activity at rat alpha3beta4 nACHR expressed in xenopous laevis oocyte assessed as inhibition of ACh induced channel current at -80 mV holding potential by two electrode voltage clamp method.
The species named for another assay is Rattus norvegicus. Put plainly: Selectivity ratio of IC50 for rat alpha6/alpha3beta4 nACHR expressed in xenopous laevis oocyte at -80 mV holding potential to IC50 for rat alpha3beta4 nACHR expressed in xenopous laevis oocyte at -80 mV holding potential.
For assay [4], the target named is T2, Nicotinic acetylcholine receptor alpha6/alpha3/beta4. Put plainly: Antagonist activity at rat alpha6/alpha3beta4 nACHR expressed in xenopous laevis oocyte assessed as inhibition of ACh induced channel current at -80 mV holding potential by two electrode voltage clamp method.
The target in assay [5] is Neuronal acetylcholine receptor; alpha2/beta4 (Rattus norvegicus, UniProt P12389+P12392). Put plainly: Antagonist activity at rat alpha2beta4 nACHR expressed in xenopous laevis oocyte assessed as inhibition of ACh induced channel current after 5 mins at -70 mV holding potential by two electrode voltage clamp method.
In assay [6] the target is Neuronal acetylcholine receptor; alpha4/beta2 (Rattus norvegicus, UniProt P09483+P12390). Put plainly: Antagonist activity at rat alpha4beta2 nACHR expressed in xenopous laevis oocyte assessed as inhibition of ACh induced channel current after 5 mins at -70 mV holding potential by two electrode voltage clamp method.
Sequence of Neuronal acetylcholine receptor; alpha4/beta2 (P09483 whole entry): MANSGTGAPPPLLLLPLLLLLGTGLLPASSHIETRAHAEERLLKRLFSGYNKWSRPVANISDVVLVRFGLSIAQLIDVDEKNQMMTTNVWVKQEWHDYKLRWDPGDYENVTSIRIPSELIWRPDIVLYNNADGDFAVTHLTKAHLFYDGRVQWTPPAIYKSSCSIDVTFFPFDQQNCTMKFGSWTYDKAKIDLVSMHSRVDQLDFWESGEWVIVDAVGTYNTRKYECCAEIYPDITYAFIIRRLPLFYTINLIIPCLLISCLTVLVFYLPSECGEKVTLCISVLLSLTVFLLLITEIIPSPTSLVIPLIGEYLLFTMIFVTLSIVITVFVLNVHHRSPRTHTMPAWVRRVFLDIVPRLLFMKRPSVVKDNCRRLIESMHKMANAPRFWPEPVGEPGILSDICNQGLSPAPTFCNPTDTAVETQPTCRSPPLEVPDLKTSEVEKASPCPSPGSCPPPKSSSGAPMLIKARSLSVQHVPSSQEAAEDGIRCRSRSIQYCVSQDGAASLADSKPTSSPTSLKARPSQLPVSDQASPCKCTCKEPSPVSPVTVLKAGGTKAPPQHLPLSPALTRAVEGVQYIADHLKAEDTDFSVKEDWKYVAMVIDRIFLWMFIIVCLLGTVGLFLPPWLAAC
Sequence of Neuronal acetylcholine receptor; alpha4/beta2 (P12390 whole entry): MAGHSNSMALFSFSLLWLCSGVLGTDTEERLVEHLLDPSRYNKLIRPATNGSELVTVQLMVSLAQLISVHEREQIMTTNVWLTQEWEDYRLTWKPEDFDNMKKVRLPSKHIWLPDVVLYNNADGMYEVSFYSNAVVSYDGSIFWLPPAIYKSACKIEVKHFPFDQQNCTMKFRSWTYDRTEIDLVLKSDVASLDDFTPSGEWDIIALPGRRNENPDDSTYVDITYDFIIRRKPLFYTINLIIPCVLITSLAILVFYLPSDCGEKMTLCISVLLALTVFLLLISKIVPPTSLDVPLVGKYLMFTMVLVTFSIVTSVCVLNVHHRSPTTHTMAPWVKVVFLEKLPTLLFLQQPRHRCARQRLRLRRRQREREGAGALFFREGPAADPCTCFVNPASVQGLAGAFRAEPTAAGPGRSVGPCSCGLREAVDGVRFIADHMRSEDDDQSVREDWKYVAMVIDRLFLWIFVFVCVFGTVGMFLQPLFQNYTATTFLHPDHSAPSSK
The target in assay [7] is Nicotinic acetylcholine receptor alpha9/alpha10 (Rattus norvegicus, UniProt P43144+Q9JLB5). Briefly: Antagonist activity at rat alpha9alpha10 nACHR expressed in xenopous laevis oocyte assessed as inhibition of ACh induced channel current after 5 mins at -70 mV holding potential by two electrode voltage clamp method.
For assay [8], the target named is Neuronal acetylcholine receptor; alpha3/beta2 (Rattus norvegicus, UniProt P04757+P12390). Briefly: Antagonist activity at rat alpha3beta2 nACHR expressed in xenopous laevis oocyte assessed as inhibition of ACh induced channel current after 5 mins at -70 mV holding potential by two electrode voltage clamp method.
In assay [9] the target is Neuronal acetylcholine receptor; alpha2/beta2 (Rattus norvegicus, UniProt P12389+P12390). Put plainly: Antagonist activity at rat alpha2beta2 nACHR expressed in xenopous laevis oocyte assessed as inhibition of ACh induced channel current after 5 mins at -70 mV holding potential by two electrode voltage clamp method.
Assay [10] concerns the target Neuronal acetylcholine receptor subunit alpha-7 (Rattus norvegicus, UniProt Q05941). Briefly: Antagonist activity at rat alpha7 nACHR expressed in xenopous laevis oocyte assessed as inhibition of ACh induced channel current after 5 mins at -70 mV holding potential by two electrode voltage clamp method.
For assay [11], the target named is Neuronal acetylcholine receptor; alpha4/beta4 (Rattus norvegicus, UniProt P09483+P12392). Put plainly: Antagonist activity at rat alpha4beta4 nACHR expressed in xenopous laevis oocyte assessed as inhibition of ACh induced channel current after 5 mins at -70 mV holding potential by two electrode voltage clamp method.
Sequence of Neuronal acetylcholine receptor; alpha4/beta4 (P09483 whole entry): as the sequence (P09483 whole entry) above
Sequence of Neuronal acetylcholine receptor; alpha4/beta4 (P12392 whole entry): as the sequence (P12392 whole entry) above

Where a SMILES comes first, the peptide text is derived from it. Bridges are numbered along the chain shown (N, C = ends). [ ]: non-standard residue; d: D form. hMet = CSCCC[C@H](N)C(=O)O Some results are limits rather than exact numbers.

Consider `CC[C@H](C)[C@@H]1NC(=O)[C@@H]2CCCN2C(=O)[C@H](CO)NC(=O)[C@H](CCCSC)NC(=O)[C@H](C)NC(=O)[C@H](CO)NC(=O)[C@@H]2CSSC[C@H](NC(=O)CN)C(=O)N[C@@H](CSSC[C@@H](C(N)=O)NC1=O)C(=O)N[C@@H](CO)C(=O)N[C@@H](Cc1cnc[nH]1)C(=O)N[C@@H](C)C(=O)N[C@@H](C(C)C)C(=O)N2` (H-GCCSHAVCSA[hMet]SPIC-NH2; disulfide 2-8, 3-15), for which the IC50 in [1] and in [2] was more than 10000 nM each time.

For the molecule `C[C@@H]1NC(=O)[C@H](Cc2ccc(O)cc2)NC(=O)[C@@H]2CSSC[C@H](NC(=O)CN)C(=O)N[C@@H](CSSC[C@@H](C(N)=O)NC(=O)[C@H](CC(=O)O)NC(=O)[C@@H]3CCCN3C(=O)[C@H](CC(N)=O)NC(=O)[C@H]([C@@H](C)O)NC1=O)C(=O)N[C@@H](CO)C(=O)N[C@@H](Cc1ccc(O)cc1)C(=O)N1CCC[C@H]1C(=O)N1CCC[C@H]1C(=O)N2` (H-GCCSYPPCYATNPDC-NH2; disulfide 2-8, 3-15), in assay [1], the IC50 came out at 750 nM.

For `CSCCC[C@@H]1NC(=O)[C@H](C)NC(=O)[C@H](CO)NC(=O)[C@@H]2CSSC[C@H](NC(=O)CN)C(=O)N[C@@H](CSSC[C@@H](C(N)=O)NC(=O)[C@H](Cc3ccc(O)cc3)NC(=O)[C@@H]3CCCN3C(=O)[C@H](CO)NC1=O)C(=O)N[C@@H](CO)C(=O)N[C@@H](Cc1cnc[nH]1)C(=O)N1CCC[C@H]1C(=O)N[C@@H](C(C)C)C(=O)N2` (H-GCCSHPVCSA[hMet]SPYC-NH2; disulfide 2-8, 3-15), the IC50 in assay [1] stood at 10 nM; in [2] it was 38.7 nM.

Turning to `CC[C@H](C)[C@@H]1NC(=O)[C@@H]2CCCN2C(=O)[C@H](CO)NC(=O)[C@H](CCCSC)NC(=O)[C@H](C)NC(=O)[C@H](CO)NC(=O)[C@@H]2CSSC[C@H](NC(=O)CN)C(=O)N[C@@H](CSSC[C@@H](C(N)=O)NC1=O)C(=O)N[C@@H](C)C(=O)N[C@@H](Cc1cnc[nH]1)C(=O)N1CCC[C@H]1C(=O)N[C@@H](C(C)C)C(=O)N2` (H-GCCAHPVCSA[hMet]SPIC-NH2; disulfide 2-8, 3-15), the results for the IC50 in [1] and in assay [2] were 10.8 nM and 64.1 nM, respectively.

Turning to `CC[C@H](C)[C@@H]1NC(=O)[C@H](CO)NC(=O)[C@@H]2CSSC[C@H](NC(=O)CN)C(=O)N[C@@H](CSSC[C@@H](C(N)=O)NC(=O)[C@H]([C@@H](C)CC)NC(=O)[C@@H]3CCCN3C(=O)[C@H](CO)NC(=O)[C@H](CCCSC)NC1=O)C(=O)N[C@@H](CO)C(=O)N[C@@H](Cc1cnc[nH]1)C(=O)N1CCC[C@H]1C(=O)N[C@@H](C(C)C)C(=O)N2` (H-GCCSHPVCSI[hMet]SPIC-NH2; disulfide 2-8, 3-15), the IC50 in assay [1] turned out to be 74.9 nM; in [2], 50.4 nM.

As for `CC[C@H](C)[C@@H]1NC(=O)[C@H](Cc2cnc[nH]2)NC(=O)[C@@H]2CCCN2C(=O)[C@H](C)NC(=O)[C@H](C)NC(=O)[C@H](C(C)C)NC(=O)[C@H](CC(N)=O)NC(=O)[C@@H]2CSSC[C@H](NC(=O)[C@@H](NC(=O)CN)CSSC[C@H](C(=O)O)NC1=O)C(=O)N[C@@H](CO)C(=O)N[C@@H](Cc1c[nH]cn1)C(=O)N1CCC[C@H]1C(=O)N[C@@H](C)C(=O)N2`, the IC50 is 370 nM in assay [3] and 5100 nM in assay [4]. Also, the Ratio IC50 in the assay filed under Rattus norvegicus is 14.

As to `CC[C@H](C)[C@@H]1NC(=O)[C@H](C)NC(=O)[C@H](CO)NC(=O)[C@H](CCCSC)NC(=O)[C@H](C)NC(=O)[C@H](CO)NC(=O)[C@@H]2CSSC[C@H](NC(=O)CN)C(=O)N[C@@H](CSSC[C@@H](C(N)=O)NC1=O)C(=O)N[C@@H](CO)C(=O)N[C@@H](Cc1cnc[nH]1)C(=O)N1CCC[C@H]1C(=O)N[C@@H](C(C)C)C(=O)N2` (H-GCCSHPVCSA[hMet]SAIC-NH2; disulfide 2-8, 3-15), the IC50 in assay [1] and in [2] was more than 10000 nM throughout.

`CSCCC[C@@H]1NC(=O)[C@H](C)NC(=O)[C@H](CO)NC(=O)[C@@H]2CSSC[C@H](NC(=O)CN)C(=O)N[C@@H](CSSC[C@@H](C(N)=O)NC(=O)[C@H](C)NC(=O)[C@@H]3CCCN3C(=O)[C@H](CO)NC1=O)C(=O)N[C@@H](CO)C(=O)N[C@@H](Cc1cnc[nH]1)C(=O)N1CCC[C@H]1C(=O)N[C@@H](C(C)C)C(=O)N2` (H-GCCSHPVCSA[hMet]SPAC-NH2; disulfide 2-8, 3-15): the results for the IC50 in assay [1] and in assay [2] were 16.1 nM and 45.8 nM, respectively.

In the case of `CC[C@H](C)[C@@H]1NC(=O)[C@@H]2CCCN2C(=O)[C@H](CO)NC(=O)[C@H](CCCSC)NC(=O)[C@H](C)NC(=O)[C@H](CO)NC(=O)[C@@H]2CSSC[C@H](NC(=O)CN)C(=O)N[C@@H](CSSC[C@@H](C(N)=O)NC1=O)C(=O)N[C@@H](CO)C(=O)N[C@@H](C)C(=O)N1CCC[C@H]1C(=O)N[C@@H](C(C)C)C(=O)N2` (H-GCCSAPVCSA[hMet]SPIC-NH2; disulfide 2-8, 3-15), the IC50 in [1] and in [2] was more than 10000 nM in each case.

For `CSCCC[C@@H]1NC(=O)[C@H](C)NC(=O)[C@H](CO)NC(=O)[C@@H]2CSSC[C@H](NC(=O)CN)C(=O)N[C@@H](CSSC[C@@H](C(N)=O)NC(=O)[C@H](CCCNC(=N)N)NC(=O)[C@@H]3CCCN3C(=O)[C@H](CO)NC1=O)C(=O)N[C@@H](CO)C(=O)N[C@@H](Cc1cnc[nH]1)C(=O)N1CCC[C@H]1C(=O)N[C@@H](C(C)C)C(=O)N2` (H-GCCSHPVCSA[hMet]SPRC-NH2; disulfide 2-8, 3-15), the results for the IC50 in assay [1] and in assay [2] were 9.8 nM and 40.8 nM, respectively.

As for `CC[C@H](C)[C@@H]1NC(=O)[C@H](Cc2cnc[nH]2)NC(=O)[C@@H]2CCCN2C(=O)[C@H](CC(N)=O)NC(=O)[C@H](CC(N)=O)NC(=O)[C@H](C(C)C)NC(=O)[C@H](CC(N)=O)NC(=O)[C@@H]2CSSC[C@H](NC(=O)[C@@H](NC(=O)CN)CSSC[C@H](C(=O)O)NC1=O)C(=O)N[C@@H](CO)C(=O)N[C@@H](Cc1c[nH]cn1)C(=O)N1CCC[C@H]1C(=O)N[C@@H](C)C(=O)N2`, the IC50 in assay [3] turned out to be 47.3 nM; in [4], 147 nM. In addition, the Ratio IC50 in the assay listed under Rattus norvegicus worked out at 3.1.

With `CC[C@H](C)[C@@H]1NC(=O)[C@@H]2CCCN2C(=O)[C@H](CO)NC(=O)[C@H](CCCSC)NC(=O)[C@H](C)NC(=O)[C@H](CO)NC(=O)[C@@H]2CSSC[C@H](NC(=O)[C@H](C)N)C(=O)N[C@@H](CSSC[C@@H](C(N)=O)NC1=O)C(=O)N[C@@H](CO)C(=O)N[C@@H](Cc1cnc[nH]1)C(=O)N1CCC[C@H]1C(=O)N[C@@H](C(C)C)C(=O)N2` (H-ACCSHPVCSA[hMet]SPIC-NH2; disulfide 2-8, 3-15), the values for the IC50 in assay [1] and in [2] were 61.9 nM and 278 nM, respectively.

`CC(C)C[C@@H]1NC(=O)[C@H](C(C)C)NC(=O)[C@H](C)NC(=O)[C@@H]2CSSC[C@H](NC(=O)CN)C(=O)N[C@@H](CSSC[C@H](C(N)=O)NC(=O)[C@H](Cc3ccc(O)cc3)NC1=O)C(=O)N[C@@H](CO)C(=O)N[C@@H](C)C(=O)N[C@@H](CCCN)C(=O)N1CCC[C@H]1C(=O)N2`: the IC50 in assay [1] came out at 1200 nM; in [2] it was 58.1 nM.

As for `CSCCC[C@@H]1NC(=O)[C@H](C)NC(=O)[C@H](CO)NC(=O)[C@@H]2CSSC[C@H](NC(=O)CN)C(=O)N[C@@H](CSSC[C@@H](C(N)=O)NC(=O)[C@H](CC(=O)O)NC(=O)[C@@H]3CCCN3C(=O)[C@H](CO)NC1=O)C(=O)N[C@@H](CO)C(=O)N[C@@H](Cc1cnc[nH]1)C(=O)N1CCC[C@H]1C(=O)N[C@@H](C(C)C)C(=O)N2` (H-GCCSHPVCSA[hMet]SPDC-NH2; disulfide 2-8, 3-15), the IC50 in [1] came to 9.2 nM; in assay [2], 67.4 nM.

As for `CC[C@H](C)[C@@H]1NC(=O)[C@@H]2CCCN2C(=O)[C@H](CO)NC(=O)[C@H](CCCSC)NC(=O)[C@H](C)NC(=O)[C@H](C)NC(=O)[C@@H]2CSSC[C@H](NC(=O)CN)C(=O)N[C@@H](CSSC[C@@H](C(N)=O)NC1=O)C(=O)N[C@@H](CO)C(=O)N[C@@H](Cc1cnc[nH]1)C(=O)N1CCC[C@H]1C(=O)N[C@@H](C(C)C)C(=O)N2` (H-GCCSHPVCAA[hMet]SPIC-NH2; disulfide 2-8, 3-15), the IC50 in assay [5], in [6], in [7], in assay [8], in assay [9] and in assay [10] was more than 10000 nM throughout. Moreover, the IC50 in assay [11] is more than 10000 nM.
